Experiment [1] has as its target T1, LecA (Pseudomonas aeruginosa, UniProt Q05097).
T1 construct: made in house
Briefly: surface plasmon resonance (SPR) direct binding to immobilised LecA. As for the experimental part: All experiments were performed on a BIACORE X100 instrument (GE Healthcare) at 25° C. and a flow rate of 10 μL min^−1. […] LecA was dissolved in 10 mM sodium acetate pH 4.5 (100 μg mL^−1) and injected over the activated chip surface on channel 2 (contact time of 540 s) until the response of ˜4000 RU was reached. Excess free amine groups were capped with an injection of 1 M ethanolamine (contact time 540 s). Bivalent compounds were dissolved in 100% DMSO and subsequently diluted to required concentrations in a running buffer (10 mM phosphate buffer pH 7.4, 2.7 mM KCl, 137 mM NaCl, 100 μM CaCl2, 0.05% Tween 20, 5% DMSO). The bivalent analytes were subjected to single-cycle kinetics analyses (contact time of 120 s and dissociation time of 120 s) consisting of injections of the analytes at 0, 10, 50, 100, and 200 nM over the immobilised-LecA. The chip surface was regenerated by 5× injections of 100 μM 4-nitrophenyl-β-D-galactose (contact time of 120 s). KD determination was performed using BIACORE X100 evaluation software (version 2.0) by applying 1:1 binding model to fit the experimental data. • [1] H. E. Gottlieb, V. Kotlyar, A. Nudelman, J. Org. Chem. 1997, 62, 7512-7515. • [2] M. Seligman, J. Biol. Chem. 1952, 195, 239-249. • [3] S. T. Xue, W. Y. He, L. L. Ma, H. Q. Wang, B. Wang, G. H. Zheng, X. Y. Ji, T. Zhang, Y. H. Li, J. D. Jiang, et al., Molecules 2013, 18, 3789-3805. • [4] Y. Li, H. Mo, G. Lian, B. Yu, Carbohydr. Res. 2012, 363, 14-22. • [5] F. Yang, F. Xie, Y. Zhang, Y. Xia, W. Liu, F. Jiang, C. Lam, Y. Qiao, D. Xie, J. Li, et al., Bioorganic Med. Chem. Lett. 2017, 27, 2166-2170. Synthesis Schemes and Results of Biophysical Assays
(In SPR one partner is held on a chip, and binding of the other changes the refractive index at the surface.)

Experiment [2] deals with T1, LecA. Briefly: competitive binding assay based on fluorescence polarisation (FP). As for the experimental part: Binding of ligands to LecA was evaluated in competitive assay based on fluorescence polarisation.
Background: Fluorescence polarisation rises when a labelled molecule tumbles more slowly, as on binding a larger partner.

Where [3] appears, read: FP IC50, Table 1, 20 μM LecA, 10 nM reporter ligand 8, TBS/Ca2+ buffer with 25% DMSO (**).
Where [4] appears, read: IC50, Table 3, TBS/Ca2+ buffer in presence of 25% DMSO.

A word on the Kd: it is the constant that tells how readily two partners part at equilibrium. Low readings indicate higher affinity, high ones lower affinity. For orientation: koff means a measure of how fast the partners let go of each other. Broadly, the IC50 is the concentration that gives 50% inhibition.

T1 sequence (Q05097 whole entry): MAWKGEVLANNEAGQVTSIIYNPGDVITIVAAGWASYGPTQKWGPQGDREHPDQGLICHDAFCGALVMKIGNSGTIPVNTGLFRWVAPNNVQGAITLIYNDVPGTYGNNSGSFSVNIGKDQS

As for `O=C(NCc1cn(CCOCCOCCOCCNC(=S)Nc2ccc3c(c2)C(=O)OC32c3ccc(O)cc3Oc3cc(O)ccc32)nn1)c1ccc(C(Oc2ccc(/C=N/NC(=O)c3ccc(O[C@@H]4OC(CO)[C@H](O)C(O)C4O)cc3)cc2)Oc2ccc(/C=N/NC(=O)c3ccc(O[C@@H]4OC(CO)[C@H](O)C(O)C4O)cc3)cc2)cc1` (stereo partly drawn) [Compound 13], on LecA [1], the Kd was 0.0372 ± 0.0029 µM and the koff was found to be 0.00593 ± 0.00051 s⁻¹. The kon at LecA [1] (Table 2, SPR, three independent experiments) was 160 ± 19 ×10^3/Ms. With `O=C(NN=Cc1ccc(OCCCCOc2ccc(C=NNC(=O)c3ccc(OC4OC(CO)C(O)C(O)C4O)cc3)cc2)cc1)c1ccc(OC2OC(CO)C(O)C(O)C2O)cc1` (stereo not drawn) [Compound E6p], the IC50 at LecA [2] (setting [3]) worked out at 4.9 ± 1.4 µM. Also, on LecA [1], the Kd turned out to be 0.094 ± 0.0289 µM. `O=C(/C=C/c1ccc(O[C@@H]2O[C@H](CO)[C@H](O)[C@H](O)[C@H]2O)cc1)Nc1ccc(OCCOc2ccc(NC(=O)/C=C/c3ccc(O[C@@H]4O[C@H](CO)[C@H](O)[C@H](O)[C@H]4O)cc3)cc2)cc1` [Compound I18]: the koff on LecA [1] came to 0.00249 ± 0.00028 s⁻¹.

Take `O=C(CCc1ccc(O[C@@H]2O[C@H](CO)[C@H](O)[C@H](O)[C@H]2O)cc1)Nc1ccc(OCCCCOc2ccc(NC(=O)CCc3ccc(O[C@@H]4O[C@H](CO)[C@H](O)[C@H](O)[C@H]4O)cc3)cn2)nc1` [Compound O31]: the IC50 on LecA [2] (setting [4]) was found to be 3.2 ± 1.8 µM. For the molecule `O=C(NN=Cc1ccc(Oc2ccc(C=NNC(=O)c3ccc(OC4OC(CO)C(O)C(O)C4O)cc3)cc2)cc1)c1ccc(OC2OC(CO)C(O)C(O)C2O)cc1` (stereo not drawn) [Compound A6p], the IC50 at LecA [2] (setting [3]) amounted to 4.3 ± 2.3 µM. This molecule also displayed a Kd on LecA [1] of 0.0217 ± 0.0076 µM. On LecA [1], `O=C(/C=C/c1ccc(O[C@@H]2O[C@H](CO)[C@H](O)[C@H](O)[C@H]2O)cc1)Nc1ccc(OCCCOc2ccc(NC(=O)/C=C/c3ccc(O[C@@H]4O[C@H](CO)[C@H](O)[C@H](O)[C@H]4O)cc3)cc2)cc1` [Compound J18] yielded a koff of 0.00251 ± 0.00022 s⁻¹. Still for that read-out and setting: the value for `O=C(CCc1ccc(O[C@@H]2O[C@H](CO)[C@H](O)[C@H](O)[C@H]2O)cc1)Nc1ccc(Oc2ccc(NC(=O)CCc3ccc(O[C@@H]4O[C@H](CO)[C@H](O)[C@H](O)[C@H]4O)cc3)cc2)cc1` [Compound G30] was 0.00349 ± 8e-05 s⁻¹.

`O=C(NN=Cc1ccc(Oc2ccc(C=NNC(=O)c3cccc(OC4OC(CO)C(O)C(O)C4O)c3)cc2)cc1)c1cccc(OC2OC(CO)C(O)C(O)C2O)c1` (stereo not drawn) [Compound A6m]: the IC50 at LecA [2] (setting [3]) came to 4.1 ± 3 µM. The molecule also registered a Kd at LecA [1] of 0.0166 ± 0.002 µM. For `O=C(NN=Cc1ccc(OCCOc2ccc(C=NNC(=O)c3ccc(OC4OC(CO)C(O)C(O)C4O)cc3)cc2)cc1)c1ccc(OC2OC(CO)C(O)C(O)C2O)cc1` (stereo not drawn) [Compound C6p], in that order: 3.8 ± 1.6 µM and 0.0417 ± 0.0239 µM. The corresponding values for `O=C(NN=Cc1ccc(OCCOc2ccc(C=NNC(=O)c3cccc(OC4OC(CO)C(O)C(O)C4O)c3)cc2)cc1)c1cccc(OC2OC(CO)C(O)C(O)C2O)c1` (stereo not drawn) [Compound C6m] are 2 ± 1.9 µM and 0.0149 ± 0.0119 µM.

Take `O=C(/C=C/c1ccc(O[C@@H]2O[C@H](CO)[C@H](O)[C@H](O)[C@H]2O)cc1)Nc1ccc(Oc2ccc(NC(=O)/C=C/c3ccc(O[C@@H]4O[C@H](CO)[C@H](O)[C@H](O)[C@H]4O)cc3)cc2)cc1` [Compound G18]: the koff on LecA [1] stood at 0.00596 ± 0.00206 s⁻¹.

`O=C(NN=Cc1ccc(OCCCCOc2ccc(C=NNC(=O)c3cccc(OC4OC(CO)C(O)C(O)C4O)c3)cc2)cc1)c1cccc(OC2OC(CO)C(O)C(O)C2O)c1` (stereo not drawn) [Compound E6m] yielded an IC50 on LecA [2] (setting [3]) of 6.3 ± 6.4 µM. The molecule also had a Kd on LecA [1] of 0.0257 ± 0.0192 µM.

With `O=C(/C=C/c1ccc(O[C@@H]2O[C@H](CO)[C@H](O)[C@H](O)[C@H]2O)cc1)Nc1ccc(OCCCOc2ccc(NC(=O)/C=C/c3ccc(O[C@@H]4O[C@H](CO)[C@H](O)[C@H](O)[C@H]4O)cc3)cn2)nc1` [Compound N32], the IC50 at LecA [2] (setting [4]) was determined as 4.3 ± 2 µM. Take `NNC(=O)c1ccc(O[C@@H]2OC(CO)[C@H](O)C(O)C2O)cc1` (stereo partly drawn) [reference compound]: the IC50 on LecA [2] (FP IC50, Table 1, 20 μM LecA, 10 nM reporter ligand 8, TBS/Ca2+ buffer with 4% DMSO (*)) was 22.6 ± 8.7 µM; at LecA [2] (setting [3]), 30.3 µM.

On to `O=C(/C=C/c1ccc(O[C@@H]2O[C@H](CO)[C@H](O)[C@H](O)[C@H]2O)cc1)Nc1ccc(OCCOc2ccc(NC(=O)/C=C/c3ccc(O[C@@H]4O[C@H](CO)[C@H](O)[C@H](O)[C@H]4O)cc3)cn2)nc1` [Compound M32], for which, at LecA [2] (setting [4]), the IC50 came out at 7.5 ± 3.7 µM. Further, at LecA [1], the koff is 0.00165 ± 0.00012 s⁻¹. For the molecule `O=C(NN=Cc1ccc(OCCCOc2ccc(C=NNC(=O)c3cccc(OC4OC(CO)C(O)C(O)C4O)c3)cc2)cc1)c1cccc(OC2OC(CO)C(O)C(O)C2O)c1` (stereo not drawn) [Compound D6m], at LecA [1], the affinity, expressed as Kd, was 0.0659 ± 0.0062 µM. For `O=C(NN=Cc1ccc(OCCCOc2ccc(C=NNC(=O)c3ccc(OC4OC(CO)C(O)C(O)C4O)cc3)cc2)cc1)c1ccc(OC2OC(CO)C(O)C(O)C2O)cc1` (stereo not drawn) [Compound D6p], the IC50 on LecA [2] (setting [3]) was 3.6 ± 1.7 µM. The affinity at LecA [1], expressed as Kd, was 0.05 ± 0.0194 µM.

As to `O=[N+]([O-])c1ccc(O[C@@H]2O[C@H](CO)[C@H](O)[C@H](O)[C@H]2O)cc1` [pNO2-Ph-β-Gal, reference compound], the IC50 on LecA [2] (setting [4]) is 40.4 ± 12.9 µM.

On LecA [1], `O=C(/C=C/c1ccc(O[C@@H]2O[C@H](CO)[C@H](O)[C@H](O)[C@H]2O)cc1)Nc1ccc(OCCCCOc2ccc(NC(=O)/C=C/c3ccc(O[C@@H]4O[C@H](CO)[C@H](O)[C@H](O)[C@H]4O)cc3)cc2)cc1` [Compound K18] had a koff of 0.00388 ± 0.00043 s⁻¹.

At LecA [1], `O=C(/C=C/c1ccc(O[C@@H]2O[C@H](CO)[C@H](O)[C@H](O)[C@H]2O)cc1)Nc1ccc(OCOc2ccc(NC(=O)/C=C/c3ccc(O[C@@H]4O[C@H](CO)[C@H](O)[C@H](O)[C@H]4O)cc3)cc2)cc1` [Compound H18] returned a koff of 0.00379 ± 0.00089 s⁻¹. Still for that read-out and setting: in the case of `O=C(CCc1ccc(O[C@@H]2O[C@H](CO)[C@H](O)[C@H](O)[C@H]2O)cc1)Nc1ccc(OCCOc2ccc(NC(=O)CCc3ccc(O[C@@H]4O[C@H](CO)[C@H](O)[C@H](O)[C@H]4O)cc3)cc2)cc1` [Compound I30] it was 0.00284 ± 6e-05 s⁻¹; in that of `O=C(CCc1ccc(O[C@@H]2O[C@H](CO)[C@H](O)[C@H](O)[C@H]2O)cc1)Nc1ccc(OCCCCOc2ccc(NC(=O)CCc3ccc(O[C@@H]4O[C@H](CO)[C@H](O)[C@H](O)[C@H]4O)cc3)cc2)cc1` [Compound K30], 0.00366 ± 0.00042 s⁻¹. On the same count and under the same terms, the value for `O=C(CCc1ccc(O[C@@H]2O[C@H](CO)[C@H](O)[C@H](O)[C@H]2O)cc1)Nc1ccc(OCOc2ccc(NC(=O)CCc3ccc(O[C@@H]4O[C@H](CO)[C@H](O)[C@H](O)[C@H]4O)cc3)cc2)cc1` [Compound H30] was 0.00462 ± 0.0002 s⁻¹. For `O=C(CCc1ccc(O[C@@H]2O[C@H](CO)[C@H](O)[C@H](O)[C@H]2O)cc1)Nc1ccc(OCCCOc2ccc(NC(=O)CCc3ccc(O[C@@H]4O[C@H](CO)[C@H](O)[C@H](O)[C@H]4O)cc3)cn2)nc1` [Compound N31], the IC50 at LecA [2] (setting [4]) came to 2.7 ± 1.1 µM. In turn, `O=C(NN=Cc1ccc(OCOc2ccc(C=NNC(=O)c3ccc(OC4OC(CO)C(O)C(O)C4O)cc3)cc2)cc1)c1ccc(OC2OC(CO)C(O)C(O)C2O)cc1` (stereo not drawn) [Compound B6p] came in with an IC50 on LecA [2] (setting [3]) of 3.7 ± 1.8 µM. Further, on LecA [1], the Kd came out at 0.0305 ± 0.028 µM. Consider `O=C(NN=Cc1ccc(OCOc2ccc(C=NNC(=O)c3cccc(OC4OC(CO)C(O)C(O)C4O)c3)cc2)cc1)c1cccc(OC2OC(CO)C(O)C(O)C2O)c1` (stereo not drawn) [Compound B6m], for which the IC50 at LecA [2] (setting [3]) worked out at 3.1 ± 2 µM. The same molecule gave a Kd at LecA [1] of 0.0143 ± 0.006 µM.

On to `O=C(CCc1ccc(O[C@@H]2O[C@H](CO)[C@H](O)[C@H](O)[C@H]2O)cc1)Nc1ccc(OCCOc2ccc(NC(=O)CCc3ccc(O[C@@H]4O[C@H](CO)[C@H](O)[C@H](O)[C@H]4O)cc3)cn2)nc1` [Compound M31], for which the IC50 on LecA [2] (setting [4]) came out at 4.1 ± 2.2 µM. Moreover, on LecA [1], the koff is 0.00141 ± 5e-05 s⁻¹. `O=C(CCc1ccc(O[C@@H]2O[C@H](CO)[C@H](O)[C@H](O)[C@H]2O)cc1)Nc1ccc(OCCCOc2ccc(NC(=O)CCc3ccc(O[C@@H]4O[C@H](CO)[C@H](O)[C@H](O)[C@H]4O)cc3)cc2)cc1` [Compound J30] gave a koff on LecA [1] of 0.00345 ± 0.00013 s⁻¹.
